In patent US20200316084A1, “METHODS TO TARGET TRANSCRIPTIONAL CONTROL AT SUPER-ENHANCER REGIONS” (TOLERO PHARMACEUTICALS, INC., priority 2014, published 2020):

How the values were obtained:
CDK9 and Hexim1 = CDK9 and Hexim1 (Homo sapiens, UniProt P50750); assay: CDK9/Hexim1 association, immunoprecipitation and western blotting in MV4-11 cells; assay type: cell-based
Description: MV4-11 cells were seeded and treated with alvocidib in identical concentrations and doses. Cells were collected at given times and subjected to high salt lysis buffer and immunoprecipitation followed by western blotting. […] FIGS. 11A and 11B provide results of a dose escalation study performed according to the above general procedure. […] Representative western blot is provided in FIG. 11A with quantification of the western blot in FIG. 11B.
Representative western blot is provided in FIG. 12A with quantification of the western blot in FIG. 12B.

[1] = Body weight of MV4-11 xenograft mice; assay type: in vivo, athymic Nu/Nu mice; settings: throughout the study; 25 mg/kg JQ-1, 2.5 mg/kg alvocidib or both
Excerpt: (§1) The AML cell line, MV4-11 is MLL fusion and FLT3-ITD positive. The MLL fusion makes this cell line particularly dependent upon super-enhancer function for driving oncogenesis. MV4-11 cells were implanted subcutaneously in athymic Nu/Nu mice and allowed to establish until tumors reached 100-200 mm^3. JQ-1, a BET protein inhibitor, and alvocidib, a Cdk inhibitor, were used alone and in combination in order to determine the effect of the drug(s) on tumor volume. Animals were stratified into 4 groups and administered one of four treatments: vehicle, 25 mg/kg JQ-1, 2.5 mg/kg alvocidib, or a combination of the two drugs at these doses. The drugs were administered intraperitoneally, once daily for 5 days, for a total of 3 weeks. Tumor volume was measured twice weekly by caliper measurement. […] Weight gain in vehicle and individual drug-treated mice could be attributed to tumor growth. Weight gain in the mice given the combination treatment could be attributed to the overall health and food intake of the mice.

c-MYC = c-MYC expression by RT-qPCR in MV4-11 cells; assay type: cell-based; settings: 2 hours, various concentrations
Description: The c-MYC gene is well known to be regulated by the super-enhancer complex in AML cells. JQ-1, a BET protein inhibitor, and alvocidib, a Cdk inhibitor, were used alone and in combination in order to determine the effect of the drug(s) on c-MYC expression. MV4-11 cells were treated with various concentrations of alvocidib and/or JQ-1 for 2 hours. DMSO-treated controls were also included. Treatment was stopped by lysing the cells and isolating RNA for RT-qPCR analysis. The expression of c-MYC was determined and normalized to the housekeeping gene, HPRT1 and to the DMSO-treated control.

MCL-1 [2] = assay: MCL-1 mRNA expression in A549 cells, alvocidib with JQ-1, RT-qPCR; assay type: cell-based, human; settings: JQ-1 0 nM-50 nM 1 hour, then alvocidib 0 nM-100 nM 2 hours
Description: A549 cells were seeded and treated with alvocidib at concentrations ranging from 0 nM-100 nM in combination with JQ-1 at concentrations ranging from 0 nM-50 nM. Cells were first treated with JQ-1 for 1 hour followed by treatment with alvocidib for 2 hours.

MCL-1 [3] = assay: MCL-1 mRNA expression time course in MV4-11 cells, RT-qPCR; assay type: cell-based; settings: MV4-11, 100 nM
Description: MV4-11 cells were seeded and treated with alvocidib at a concentration of 100 nM. […] Cells were harvested and detection of mRNA was carried out using RT-qPCR analysis in the manner described in previous examples. Expression of MCL-1 was compared to expression of controls and untreated cells. […] There appears to be no inhibition on expression by the 3 hour time point.

MCL-1 [4] = assay: MCL-1 expression relative to HPRT in MV4-11 cells; assay type: cell-based; settings: alvocidib single agent, two hours
Description: (§2) To determine the MYC and MCL-1 inhibitory activity of alvocidib, MV4-11 cells were treated with alvocidib for two hours and the expression of MYC and MCL-1 relative to HPRT was determined.

MYC [5] = assay: MYC mRNA expression in A549 cells, RT-qPCR; assay type: cell-based, human; settings: 0-8 μM, 2 hours
Description: (§5) A549 cells were seeded and treated with alvocidib at concentrations ranging from 0-8 μM for 2 hours. Following the treatment of solid tumor cells, cells were harvested and mRNA was detected using RT-qPCR in the manner described in previous examples.

MV4-11 cells = assay: MV4-11 subcutaneous xenograft, tumor volume by caliper; assay type: in vivo, athymic Nu/Nu mice; settings: for effect on tumor volume: 25 mg/kg JQ-1, 2.5 mg/kg alvocidib or both, intraperitoneally once daily for 5 days, total of 3 weeks
Excerpt: as §1

MCL-1 and c-MYC/N-MYC [6] = assay: Protein expression by western blotting in SK-N-AS cells; assay type: cell-based, human; settings: 300 nM, time course
Description: (§3) A549 cells and SK-N-AS cells (human adrenal neuroblastoma cell line) were seeded and treated with alvocidib at concentrations of 100 nM and 300 nM respectively. Cells were collected at given times and total protein was extracted and detected using western blotting.

MYC [7] = assay: MYC expression relative to HPRT in MV4-11 cells; assay type: cell-based; settings: alvocidib single agent, two hours
Description: as §2

MCL-1 [8] = assay: MCL-1 mRNA expression in A549 cells, RT-qPCR; assay type: cell-based, human; settings: 0-8 μM, 2 hours
Description: as §5

MCL-1 and c-MYC/N-MYC [9] = assay: Protein expression by western blotting in A549 cells; assay type: cell-based, human; settings: 100 nM, time course
Description: as §3

[10] = test system: super enhancer complex regulated genes; assay: Super enhancer complex regulated genes, mRNA expression in A549 cells; assay type: cell-based, human
Description: A549 cells are adenocarcinomic human alveolar basal epithelial cells used as a type II pulmonary epithelial model (solid tumor). These cells were seeded and treated with alvocidib in identical concentrations and doses. Treatment was stopped by lysing the cells and isolating RNA for RT-qPCR analysis. […] The expression of mRNA was determined and normalized to β-actin and the control.

MV4-11 = assay: Cell viability by Cell Titer GLO, MV4-11; assay type: cell-based; settings: then 48 h inhibitor
Description: (§4) MOLM13 and MV4-11 are MLL fusion and FLT3-ITD positive, AML cells lines. Both cell lines were treated with 20 nM of alvocidib, a Cdk inhibitor, for 48 hours or DMSO control, followed by the addition of JQ-1, an inhibitor of BET proteins, at various concentrations (10 μM-0.0003 μM) or by the addition of panobinostat, an inhibitor of HDAC, at various concentrations (10 μM-0.0003 μM) for 48 additional hours. At completion, cell viability was measured by Cell Titer GLO reagent. IC50 values were determined for JQ-1 and panobinostat with and without the low dose of alvocidib. Addition of 20 nM alvocidib increased the potency of JQ-1, as shown by an IC50 value of 2-fold lower.

MOLM13 = assay: Cell viability by Cell Titer GLO, MOLM13; assay type: cell-based; settings: for IC50: MOLM13, then 48 h inhibitor
Description: as §4

Sequence of CDK9 and Hexim1 (P50750 whole entry): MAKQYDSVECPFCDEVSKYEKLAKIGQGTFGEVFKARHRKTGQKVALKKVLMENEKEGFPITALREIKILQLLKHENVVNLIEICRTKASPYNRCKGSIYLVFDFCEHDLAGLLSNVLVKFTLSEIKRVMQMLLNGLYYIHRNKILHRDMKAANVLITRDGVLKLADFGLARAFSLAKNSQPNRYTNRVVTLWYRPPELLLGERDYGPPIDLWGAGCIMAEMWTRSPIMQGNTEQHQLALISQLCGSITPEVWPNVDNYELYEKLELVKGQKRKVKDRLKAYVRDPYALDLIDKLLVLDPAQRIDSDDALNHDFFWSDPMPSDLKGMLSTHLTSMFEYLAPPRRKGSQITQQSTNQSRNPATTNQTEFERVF
Sequence of CDK9 and Hexim1 (O60563 whole entry partner): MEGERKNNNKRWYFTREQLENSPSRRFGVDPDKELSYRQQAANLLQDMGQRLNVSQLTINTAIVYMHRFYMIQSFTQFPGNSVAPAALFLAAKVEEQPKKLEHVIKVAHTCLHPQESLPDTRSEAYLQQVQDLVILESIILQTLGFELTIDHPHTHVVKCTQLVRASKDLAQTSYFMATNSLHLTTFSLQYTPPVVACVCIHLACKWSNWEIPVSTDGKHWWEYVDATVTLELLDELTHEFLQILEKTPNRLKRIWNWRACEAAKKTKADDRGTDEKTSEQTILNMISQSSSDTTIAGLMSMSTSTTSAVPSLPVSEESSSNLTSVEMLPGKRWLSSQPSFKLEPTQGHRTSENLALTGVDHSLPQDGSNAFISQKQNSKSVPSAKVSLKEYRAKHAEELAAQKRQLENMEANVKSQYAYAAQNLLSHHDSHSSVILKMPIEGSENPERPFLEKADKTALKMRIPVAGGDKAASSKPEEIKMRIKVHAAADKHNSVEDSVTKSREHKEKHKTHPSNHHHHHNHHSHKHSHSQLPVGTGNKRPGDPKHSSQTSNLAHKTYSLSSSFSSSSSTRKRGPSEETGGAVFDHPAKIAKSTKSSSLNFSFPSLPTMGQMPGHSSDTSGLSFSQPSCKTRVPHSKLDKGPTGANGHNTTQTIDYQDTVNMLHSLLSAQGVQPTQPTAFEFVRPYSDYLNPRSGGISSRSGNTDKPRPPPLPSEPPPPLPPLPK

CN1CC[C@H](c2c(O)cc(O)c3c(=O)cc(-c4ccccc4Cl)oc23)[C@H](O)C1 [alvocidib]
CDK9/Hexim1 association (CDK9 and Hexim1; 500 nM dose, half hour time point): increased CDK9/Hexim1 association | association of CDK9 and Hexim1 (CDK9 and Hexim1; 1 mM alvocidib, time course): increases association of CDK9 and Hexim1 in a time dependent manner | CDK9/Hexim1 association (CDK9 and Hexim1; 2 hr treatment, different doses): dose dependent increase | body weight [1]: comparable | expression of c-MYC normalized to HPRT1 and DMSO control (c-MYC): downregulated | MCL-1 mRNA expression (MCL-1 [2]): represses MCL-1 mRNA expression | MCL-1 mRNA expression (MCL-1 [3]; 30 minute time point): repressed | MCL-1 mRNA expression (MCL-1 [3]; 1 hour post-dose): maximum repression | MCL-1 mRNA expression (MCL-1 [3]; 2 hour time point): repression is reduced | MCL-1 mRNA expression (MCL-1 [3]; 3 hour time point): no inhibition | reduction of MCL-1 expression (MCL-1 [4]): 60% | MYC mRNA expression relative to HPRT1 (MYC [5]): represses MYC mRNA expression in a dose dependent manner | tumor size relative to vehicle (MV4-11 cells; 2.5 mg/kg alvocidib i.p., throughout the study): approximately 50% | effect on tumor volume (MV4-11 cells): moderate activity | protein expression of MCL-1 and c-MYC/N-MYC (MCL-1 and c-MYC/N-MYC [6]): represses protein expression | MYC expression (MYC [7]): completely eliminates | MCL-1 mRNA expression relative to HPRT1 (MCL-1 [8]): represses MCL-1 mRNA expression in a dose dependent manner | protein expression of MCL-1 and c-MYC/N-MYC (MCL-1 and c-MYC/N-MYC [9]): represses protein expression | mRNA expression ([10]; 0.1 μM dose, 2 hour time point): noticeably repressed | expression of mRNA normalized to β-actin and control ([10]; 24 and 48 hour time points): downregulated the expression of mRNA completely | mRNA expression relative to β-actin and vehicle control ([10]; doses of 1 μM up to 8 μM, 2 hours): Complete repression

Cc1[nH]c2ccccc2c1CCNCc1ccc(/C=C/C(=O)NO)cc1 [Panobinostat, panobinostat]
IC50 (MV4-11; Homo sapiens, MV4-11, 48 h, 20 nM alvocidib 48 h): 0.003 µM | IC50 (MV4-11; Homo sapiens, MV4-11, 48 h, without alvocidib (DMSO 48 h)): 0.018 µM | IC50 (MOLM13; Homo sapiens, MOLM-13, 48 h, 20 nM alvocidib 48 h): 0.005 µM | IC50 (MOLM13; Homo sapiens, MOLM-13, 48 h, without alvocidib (DMSO 48 h)): 0.016 µM

Cc1sc2c(c1C)C(c1ccc(Cl)cc1)=N[C@@H](CC(=O)OC(C)(C)C)c1nnc(C)n1-2 [JQ-1]
body weight [1]: comparable | expression of c-MYC normalized to HPRT1 and DMSO control (c-MYC): downregulated | effect on tumor volume (MV4-11 cells): no measurable activity | IC50 (MV4-11; 20 nM alvocidib 48 h): 0.133 µM | IC50 (MV4-11; without alvocidib (DMSO 48 h)): 0.228 µM | IC50 (MOLM13; 20 nM alvocidib 48 h): 0.209 µM | IC50 (MOLM13; without alvocidib (DMSO 48 h)): 0.526 µM | fold lower IC50 on addition of 20 nM alvocidib (MOLM13; MOLM13 and MV4-11): 2 fold
